Test results taken from US12338262B2 (Forward Therapeutics, Inc., priority 2022, dated 2025).

Target: TNF-α (Homo sapiens, UniProt P01375)
Experiment: TNF-α Induced HEK Blue Cellular Assay
Type: cell-based
Conditions: HEK Blue TNFα reporter cells, TNF-α 100 pg/ml, 24 hrs at 37° C., secreted alkaline phosphatase (QUANTI-Blue, 620 nm)
Method in brief: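 Read-out is SEAP via QUANTI-Blue absorbance at 620 nm after a 24 h, 37 °C incubation of reporter HEK Blue cells with 100 pg/ml TNF-α plus compound at final […]–0.5 nM. Percent inhibition normalised to DMSO ± stimulation; 4-parameter logistic fit gives IC50.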

TNF-α, sequence (P01375 77-233 limits assumed): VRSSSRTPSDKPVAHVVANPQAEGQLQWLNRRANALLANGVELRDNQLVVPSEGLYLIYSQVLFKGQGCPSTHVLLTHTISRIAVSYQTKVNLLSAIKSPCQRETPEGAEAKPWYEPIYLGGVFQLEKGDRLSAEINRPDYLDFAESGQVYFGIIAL

SMILES	IC50 [nM]
Cc1nc2cc(F)c(-c3ccc(OCP(C)(C)=O)nc3)cc2c(N[C@H](C)c2ccccc2F)c1Cl [Example 105, 3-chloro-6-{6-[(dimethylphosphoryl)methoxy]pyridin-3-yl}-7-fluoro-N-[(1R)-1-(2-fluorophenyl)ethyl]-2-methylquinolin-4-amine]	≤ 1000
Cc1nc2cc(F)c(-c3ccc(P(C)(C)=O)nc3)nc2c(N[C@H](C)c2cc(C#N)cc(F)c2F)c1Cl [Example 106, 3-[(1R)-1-({3-chloro-6-[6-(dimethylphosphoryl)pyridin-3-yl]-7-fluoro-2-methyl-1,5-naphthyridin-4-yl}amino)ethyl]-4,5-difluorobenzonitrile]	≤ 100
Cc1nc2cc(F)c(-c3cnc(P(C)(C)=O)c(F)c3)nc2c(N[C@H](C)c2cccc(F)c2F)c1Cl [Example 107, 3-chloro-N-[(1R)-1-(2,3-difluorophenyl)ethyl]-6-[6-(dimethylphosphoryl)-5-fluoropyridin-3-yl]-7-fluoro-2-methyl-1,5-naphthyridin-4-amine]	≤ 1000
CC[C@@H](Nc1c(Cl)c(C)nc2cc(F)c(-c3ccc(OCP(C)(C)=O)nc3)nc12)c1ncccc1F [Example 108, 3-chloro-6-{6-[(dimethylphosphoryl)methoxy]pyridin-3-yl}-7-fluoro-N-[(1R)-1-(3-fluoropyridin-2-yl)propyl]-2-methyl-1,5-naphthyridin-4-amine]	≤ 1000
Cc1nc2cc(F)c(-c3ccc(P(C)(C)=O)nc3)nc2c(NC2(c3ccccn3)CC2)c1Cl [Example 111, 3-chloro-6-[6-(dimethylphosphoryl)pyridin-3-yl]-7-fluoro-2-methyl-N-[1-(pyridin-2-yl)cyclopropyl]-1,5-naphthyridin-4-amine]	≤ 100
Cc1nc2cc(F)c(-c3ccc(P(C)(C)=O)nc3)cc2c(N[C@H](C)c2cc(F)cc(F)c2)c1Cl [Example 112, 3-chloro-N-[(1R)-1-(3,5-difluorophenyl)ethyl]-6-[6-(dimethylphosphoryl)pyridin-3-yl]-7-fluoro-2-methylquinolin-4-amine]	≤ 1000
CC[C@@H](Nc1c(Cl)c(C)nc2cc(F)c(-c3cnc(P(C)(C)=O)nc3)nc12)c1cccc(F)c1F [Example 113, (R)-(5-(7-chloro-8-((1-(2,3-difluorophenyl)propyl)amino)-3-fluoro-6-methyl-1,5-naphthyridin-2-yl)pyrimidin-2-yl)dimethylphosphine oxide]	≤ 1000
CC[C@@H](Nc1c(Cl)c(C)nc2cc(F)c(-c3cnc(P(C)(C)=O)nc3)cc12)c1cccc(F)c1F [Example 114, (R)-(5-(3-chloro-4-((1-(2,3-difluorophenyl)propyl)amino)-7-fluoro-2-methylquinolin-6-yl)pyrimidin-2-yl)dimethylphosphine oxide]	≤ 100
CC[C@H](Nc1c(Cl)c(C)nc2cc(F)c(-c3cnc(P(C)(C)=O)nc3)cc12)c1cccc(F)c1F [Example 115, (S)-(5-(3-chloro-4-((1-(2,3-difluorophenyl)propyl)amino)-7-fluoro-2-methylquinolin-6-yl)pyrimidin-2-yl)dimethylphosphine oxide]	≤ 1000
Cc1nc2cc(F)c(-c3ccc(P(C)(C)=O)c(F)c3)nc2c(N[C@H](C)c2cccc(Cl)c2F)c1Cl [Example 118, 3-chloro-N-[(1R)-1-(3-chloro-2-fluorophenyl)ethyl]-6-[4-(dimethylphosphoryl)-3-fluorophenyl]-7-fluoro-2-methyl-1,5-naphthyridin-4-amine]	≤ 1000
Cc1nc2cc(F)c(-c3ccc(P(C)(C)=O)nc3)nc2c(N[C@H](C)c2cc(C#N)ccc2F)c1C [Example 119, 3-[(1R)-1-({6-[6-(dimethylphosphoryl)pyridin-3-yl]-7-fluoro-2,3-dimethyl-1,5-naphthyridin-4-yl}amino)ethyl]-4-fluorobenzonitrile]	≤ 1000
Cc1nc2cc(F)c(-c3cnc(P(C)(C)=O)c(F)c3)nc2c(N[C@H](C)c2cc(C#N)ccc2F)c1Cl [Example 120, 3-[(1R)-1-({3-chloro-6-[6-(dimethylphosphoryl)-5-fluoropyridin-3-yl]-7-fluoro-2-methyl-1,5-naphthyridin-4-yl}amino)ethyl]-4-fluorobenzonitrile]	≤ 100
Cc1nc2cc(F)c(-c3cnc(OCP(C)(C)=O)nc3)nc2c(N[C@H](C)c2cc(C#N)ccc2F)c1Cl [Example 121, 3-[(1R)-1-[(3-chloro-6-{2-[(dimethylphosphoryl)methoxy]pyrimidin-5-yl}-7-fluoro-2-methyl-1,5-naphthyridin-4-yl)amino]ethyl]-4-fluorobenzonitrile]	≤ 100
Cc1nc2cc(F)c(-c3ccc(P(C)(C)=O)nc3)nc2c(N[C@@H](C)c2nc(C#N)ccc2F)c1Cl [Example 122, 6-[(1S)-1-({3-chloro-6-[6-(dimethylphosphoryl)pyridin-3-yl]-7-fluoro-2-methyl-1,5-naphthyridin-4-yl}amino)ethyl]-5-fluoropyridine-2-carbonitrile]	≤ 100
Cc1nc2cc(F)c(-c3ccc(P(C)(C)=O)nc3)nc2c(N[C@H](C)c2nc(C#N)ccc2F)c1Cl [Example 123, 6-[(1R)-1-({3-chloro-6-[6-(dimethylphosphoryl)pyridin-3-yl]-7-fluoro-2-methyl-1,5-naphthyridin-4-yl}amino)ethyl]-5-fluoropyridine-2-carbonitrile]	≤ 1000
Cc1nc2cc(F)c(-c3cnc(OCP(C)(C)=O)nc3)nc2c(N[C@H](C)c2cccc(F)c2F)c1Cl [Example 124, 3-chloro-N-[(1R)-1-(2,3-difluorophenyl)ethyl]-6-{2-[(dimethylphosphoryl)methoxy]pyrimidin-5-yl}-7-fluoro-2-methyl-1,5-naphthyridin-4-amine]	≤ 1000
CC[C@@H](Nc1c(Cl)c(C)nc2cc(F)c(-c3cnc(OCP(C)(C)=O)nc3)nc12)c1cccc(F)c1F [Example 125, 3-chloro-N-[(1R)-1-(2,3-difluorophenyl)propyl]-6-{2-[(dimethylphosphoryl)methoxy]pyrimidin-5-yl}-7-fluoro-2-methyl-1,5-naphthyridin-4-amine]	≤ 1000
CC[C@H](Nc1c(Cl)c(C)nc2cc(F)c(-c3cnc(OCP(C)(C)=O)nc3)nc12)c1cccc(F)c1F [Example 126, 3-chloro-N-[(1S)-1-(2,3-difluorophenyl)propyl]-6-{2-[(dimethylphosphoryl)methoxy]pyrimidin-5-yl}-7-fluoro-2-methyl-1,5-naphthyridin-4-amine]	≤ 100
CC[C@H](Nc1c(Cl)c(C)nc2cc(F)c(-c3cnc(P(C)(C)=O)nc3)nc12)c1cccc(F)c1F [Example 127, 3-chloro-N-[(1S)-1-(2,3-difluorophenyl)propyl]-6-[2-(dimethylphosphoryl)pyrimidin-5-yl]-7-fluoro-2-methyl-1,5-naphthyridin-4-amine]	≤ 1000

The next lines start with the values.

IC50 [nM]	SMILES
10000 to 30000	Cc1nc2cc(F)c(-c3cnc(P(C)(C)=O)c(F)c3)nc2c(N[C@H](C)c2cc(F)cc(F)c2)c1Cl [Example 128, 3-chloro-N-[(1R)-1-(3,5-difluorophenyl)ethyl]-6-[6-(dimethylphosphoryl)-5-fluoropyridin-3-yl]-7-fluoro-2-methyl-1,5-naphthyridin-4-amine]
10000 to 30000	Cc1nc2cc(F)c(-c3cnc(P(C)(C)=O)c(F)c3)cc2c(N[C@H](C)c2cc(F)cc(F)c2)c1Cl [Example 129, 3-chloro-N-[(1R)-1-(3,5-difluorophenyl)ethyl]-6-[6-(dimethylphosphoryl)-5-fluoropyridin-3-yl]-7-fluoro-2-methylquinolin-4-amine]
≤ 1000	Cc1nc2cc(F)c(-c3ccc(P(C)(C)=O)nc3)nc2c(N[C@H](C)c2cc(F)cc(Cl)c2)c1Cl [Example 130, 3-chloro-N-[(1R)-1-(3-chloro-5-fluorophenyl)ethyl]-6-[6-(dimethylphosphoryl)pyridin-3-yl]-7-fluoro-2-methyl-1,5-naphthyridin-4-amine]
≤ 1000	Cc1nc2cc(F)c(-c3cnc(P(C)(C)=O)nc3)nc2c(N[C@H](C)c2cc(C#N)cc(F)c2F)c1Cl [Example 131, 3-[(1R)-1-({3-chloro-6-[2-(dimethylphosphoryl)pyrimidin-5-yl]-7-fluoro-2-methyl-1,5-naphthyridin-4-yl}amino)ethyl]-4,5-difluorobenzonitrile]
≤ 1000	CC[C@H](Nc1c(Cl)c(C)nc2cc(F)c(-c3cnc(P(C)(C)=O)nc3)nc12)c1ncccc1F [Example 132, 3-chloro-6-[2-(dimethylphosphoryl)pyrimidin-5-yl]-7-fluoro-N-[(1S)-1-(3-fluoropyridin-2-yl)propyl]-2-methyl-1,5-naphthyridin-4-amine]
≤ 100	Cc1nc2cc(F)c(-c3ccc(P(C)(C)=O)nc3)nc2c(N[C@H](C)c2cccc(F)c2F)c1C [Example 133, N-[(1R)-1-(2,3-difluorophenyl)ethyl]-6-[6-(dimethylphosphoryl)pyridin-3-yl]-7-fluoro-2,3-dimethyl-1,5-naphthyridin-4-amine]
1000 to 10000	Cc1nc2cc(F)c(-c3ccc(P(C)(C)=O)nc3)nc2c(N[C@H](C)c2cccc(F)c2F)c1C1CC1 [Example 134, 3-cyclopropyl-N-[(1R)-1-(2,3-difluorophenyl)ethyl]-6-[6-(dimethylphosphoryl)pyridin-3-yl]-7-fluoro-2-methyl-1,5-naphthyridin-4-amine]
≤ 100	Cc1nc2cc(F)c(-c3cnc(P(C)(C)=O)c(F)c3)cc2c(N[C@H](C)c2cccc(F)c2F)c1Cl [Example 135, 3-chloro-N-[(1R)-1-(2,3-difluorophenyl)ethyl]-6-[6-(dimethylphosphoryl)-5-fluoropyridin-3-yl]-7-fluoro-2-methylquinolin-4-amine]
≤ 1000	Cc1nc2cc(F)c(-c3ccc(P(C)(C)=O)nc3)nc2c(NC(c2ncccc2F)C2CC2)c1Cl (stereo not shown) [Example 136, 3-chloro-N-[cyclopropyl(3-fluoropyridin-2-yl)methyl]-6-[6-(dimethylphosphoryl)pyridin-3-yl]-7-fluoro-2-methyl-1,5-naphthyridin-4-amine]
